The source of these data is US7317187B2, “Frontal affinity chromatography/MALDI tandem mass spectrometry” (priority 2004, dated 2008).

For assay [1], the target named is T1, entrapped dihydrofolate reductase (DHFR) (Escherichia coli, UniProt P0ABQ4).
T1 construct: made in house
Put plainly: FAC/ESI-MS/MS on monolithic column with entrapped DHFR. In kind it is binding, E. coli. As to conditions: DHFR loaded column (25 pmol initial loading), compounds infused at 50 nM, 2 mM ammonium acetate, ESI/MS/MS detection.

For assay [2], the target named is dihydrofolate reductase (DHFR) (Escherichia coli, UniProt P0ABQ4). As to conditions: cited from earlier work.

Each structure is given as a SMILES string.

In the case of `Nc1nc2ncc(CNc3ccc(C(=O)N[C@@H](CCC(=O)O)C(=O)O)cc3)nc2c(=O)[nH]1` [folic acid], in assay [1], the “retention (elution) time” value was 3 min. Besides, the Kd in assay [2] was 11 µM.

Regarding `CC(=O)NC(=O)[C@H](O)[C@@H](O)[C@H](O)[C@H](O)CO` [N-acetyl-gluconamide], the “retention (elution) time” value in assay [1] was 1.5 min.

What is called Kd is the constant that tells how readily two partners part at equilibrium.
